Reference: article PMC4215638, “J-147 a Novel Hydrazide Lead Compound to Treat Neurodegeneration: CeeTox™ Safety and Genotoxicity Analysis” (Journal of neurology & neurophysiology, 2013)
pEC50: −log10 of the molar value.

Tests used:
[1] = system: rat hepatoma (H4IIE) cell line; test: Intracellular glutathione (GSH) levels; assay type: cell-based; conditions: H4IIE cells; for Percent Change in Total GSH: decrease indicated by (−), increase by (+)
Description: (§1) Rat hepatoma derived H4IIE cells were used as the test system because the cell have a rapid doubling time in culture (i.e. 22 hours). The culture medium used for these cells was Eagles Minimum Essential Medium (MEM) with 10% bovine serum and 10% calf serum (Invitrogen). H4IIE cells were seeded into 96-well plates and allowed to equilibrate for approximately 48 hr before drug assay to allow cells to move into a stable growth phase prior to treatment. Following the equilibration period the cells were exposed to J-147 at concentrations of 1–300 μM. Three to 7 replicates were done for each assay to construct concentration-response curves. Solubility was determined by Nephalometry techniques immediately after dosing and prior to harvesting the cells at 6 or 24 hr. Following the incubation period, cells or their supernatant (culture medium) were analyzed for changes in cell proliferation (cell mass), membrane leakage, mitochondrial function, oxidative stress, and apoptosis. The resultant exposure concentration response curves were graphed and analyzed for determining the concentration that produced a half maximal response or TC50 [28, 30].
Intracellular glutathione levels were determined as described previously. Briefly, the sulfhydryl group of GSH reacts with DTNB (5,5′-dithio-bis-2-nitrobenzoic acid, Ellman’s reagent) and produces a yellow colored 5-thio-2-nitrobenzoic acid (TNB). The mixed disulfide, GSTNB (between GSH and TNB) that is concomitantly produced, is reduced by glutathione reductase to recycle the GSH and produce more TNB. The rate of TNB production is directly proportional to the concentration of GSH in the sample. Measurement of the absorbance of TNB at 405 or 412 nm provides an accurate estimation of GSH in the sample. At the end of the exposure period, the medium was removed from the cells and metaphosphoric acid (MPA) was added to each well. Plates were then shaken for 5 min at room temperature and stored at −20°C until needed. The sample plates were thawed just prior to analysis and centrifuged at > 2000 × g for 2 min. Sample aliquots were removed and transferred to a clean 96-well plate along with appropriate standard curve controls. Sample pH was neutralized just prior to analysis and each well received an aliquot of PBS reaction buffer containing Ellman’s reagent, NADPH, and glutathione reductase. The plates were shaken for 15–30 min at room temperature and glutathione content was determined colorimetrically with a Packard Fusion reader at 415 nm. The assay is based on the concept that all GSH is oxidized to GSSG by DTNB reagent. Two molecules of GSH are required to make one molecule of GSSG (oxidized glutathione). Total GSH was determined by reducing GSSG to 2GSH with glutathione reductase. A standard curve was prepared with oxidized glutathione (GSSG) over a range of concentrations. These concentrations are then converted to glutathione equivalents (GSX) essentially by multiplying the GSSG standard concentrations by 2. The amount of GSX expressed as pmoles/well was determined using the standard curve and regression analysis and are expressed as percent of control;

[2] = system: Caspase 3 in H4IIE cells; test: Apoptosis: caspase 3 activity (DEVD-AMC); assay type: cell-based, rat
Description: as §1
Caspase 3 activity was determined using a caspase substrate (DEVD, Asp-Glu-Val-Asp) labeled with a fluorescent molecule, 7-Amino-4-methylcoumarin (AMC). Caspase 3 cleaves the tetrapeptide between D and AMC, thus releasing the fluorogenic green AMC [28]. Following the test article exposure to cells in 96-well plates, medium was aspirated from plates and PBS added to each well. Plates were stored at −80°C to lyse cells and store samples until further analysis. On the day of analysis, plates were removed from freezer and thawed. […] AMC release was measured in a spectrofluorometer at an excitation wavelength of 360 nm and an emission wavelength of 460 nm. Values are expressed as relative fluorescent units (RFU). […]

[3] = system: P-glycoprotein (PgP); test: P-glycoprotein (PgP) binding using the MTT assay with and without cyclosporin A; assay type: cell-based, rat; design: key to % Difference (PgP interaction ranking): NC=No change; conditions: for % Control (Compound + CSA) / % Control (Compound): MTT, H4IIE cells, single exposure concentration (50 μM), 24-hr; for % Control (Compound + CSA): with cyclosporin A; for % Control (Compound): without CSA; for % Difference (PgP interaction ranking): difference in the absence and presence of CSA
Description: For this assay, cells are incubated with and without cyclosporin A (CSA) (a PgP inhibitor) at a single exposure concentration (50 μM) and the difference in toxicity determined with the MTT assay. Compounds with increased toxicity in the presence of CSA have a high probability of binding to PgP proteins. However, compounds of low toxicity will typically not show a difference relative to the addition of CSA, regardless of whether they bind to PgP. At the end of the 24-hr exposure period the culture medium was removed and the remaining attached cells were assayed for their ability to reduce MTT. Viable cells will have the greatest amount of MTT reduction and highest absorbance values. Percent control values were determined by dividing the mean absorbance/fluorescence of the treatment group by the mean absorbance of the control group and multiplying by 100.

[4] = Microsomal metabolic stability; assay type: in vitro ADME; conditions: 30 minutes at 37°C, rat microsomes
Description: Metabolic stability was conducted using pooled microsomes from non-induced male Sprague-Dawley rats. J-147 was incubated for 30 minutes at 37°C at concentrations of 1 μM. Subsequent HPLC analysis using a Waters Alliance 2795 in combination with a Waters Quattro Premier mass spectrometer measured disappearance of the parent molecule. The compounds were run on a Waters X-BridgeC18 (186003021) 50 × 2.1 mm column with 3.5 micron particle packing at a flow rate of 1 ml/min and with the temperature maintained at 50°C. Solvent A was water with 0.1% formic acid. Solvent B was acetonitrile with 0.07% formic acid. The data for 3 replicates are expressed as percent of parent remaining.

[5] = system: low-density cultured rat cortical neurons; conditions: previously published; read-out: EC50 neurotrophism; cited from earlier work
[6] = system: HT22 and primary cell; design: method as in PMID 22194796, PMID 23673233; conditions: HT22 and primary cortical cells, IAA or glutamate toxicity; read-out: EC50 neuroprotection (cell survival); cited from earlier work
[7] = system: AD mouse; design: method as in PMID 23673233; conditions: cited from earlier work
[8] = system: dopamine transporter; design: method as in PMID 23673233; conditions: read-out: EC50 dopamine transporter inhibition; cited from earlier work
[9] = system: MAOB; design: method as in PMID 23673233; conditions: read-out: EC50 MAOB inhibition; cited from earlier work

SMILES	Total GSH TC50 [1] [nM]	Percent Change in Total GSH [1] [%]	Caspase 3 Activity (Index/Dose): dose ([2]; dose part of cell)	Caspase 3 Activity (Index/Dose): index ([2]; index part of cell)	% Control (Compound + CSA) [3] [%]	% Control (Compound) [3] [%]	% Difference (PgP interaction ranking) [3]	Metabolism Ranking ([4]; 1 μM)	remaining at 0.5 h, 1 μM ([4]; male, Sprague-Dawley, pooled microsomes from non-induced rats, percent of parent remaining) [%]	pEC50 [5]	pEC50 [6]	Effect on caspase-3 activity [2]	Safety and memory impairment after chronic administration [7]	pEC50 [8]	pEC50 [9]	Interaction with Permeability-glycoprotein ([3]; cells incubated with and without CSA, 50 μM)
CC[C@@]1(O)C(=O)OCc2c1cc1n(c2=O)Cc2cc3ccccc3nc2-1 [Camptothecin, camptothecin]	3900	−64.5	1 (0–200=1)	3 (400–600=3)	85.3	76.6	NC									
COc1cccc(/C=N/N(C(=O)C(F)(F)F)c2ccc(C)cc2C)c1 [J-147, (E)-N-(2,4-Dimethylphenyl)-2,2,2-trifluoro-N′-(3-methoxybenzylidene) acetohydrazide]	217000	−84.9			92.1	93.7	NC	High (<45=high)	12	7.60	6.94 to 7.22	did not affect	safe and beneficial to reduce memory impairment	6.19	5.73	low interaction
C=C(C)[C@H]1Cc2c(ccc3c2O[C@@H]2COc4cc(OC)c(OC)cc4[C@@H]2C3=O)O1 [Rotenone, rotenone]	300	−100.0			86.1	80.5	NC									
